Measured values from publication PMC6768028, “Synthesis, SAR and in vitro therapeutic potentials of thiazolidine-2,4-diones” (Chemistry Central Journal, 2018).
≈ marks a conversion by molar mass, not a printed value.

What was measured:
Bacillus subtilis = assay: Antimicrobial activity, tube dilution method (MIC); type: cell-based; conditions: 24 h, read-out: Minimum inhibitory concentration, B. subtilis, tube dilution, 37 ± 1 °C, 24 h
Experimental: (§1) The in vitro antimicrobial activity of synthesized compounds was done by tube dilution method against Gram-positive bacteria: Staphylococcus aureus, Bacillus subtilis, Gram-negative bacteria: Escherichia coli, Klebsiella pneumonia, Salmonella typhi and fungal: Candida albicans and Aspergillus niger strains using cefadroxil and fluconazole as standard. Dilutions of test and standard compounds were prepared in double strength nutrient broth for bacterial strains and Sabouraud dextrose broth for fungal strains.

Escherichia coli = assay: Antimicrobial activity, tube dilution method (MIC); type: cell-based; conditions: 24 h, read-out: Minimum inhibitory concentration, E. coli, tube dilution, 37 ± 1 °C, 24 h
Experimental: as §1

Klebsiella pneumonia = assay: Antimicrobial activity, tube dilution method (MIC); type: cell-based; conditions: Klebsiella pneumoniae, 24 h, read-out: Minimum inhibitory concentration, K. pneumonia, tube dilution, 37 ± 1 °C, 24 h
Experimental: as §1

Salmonella typhi = assay: Antimicrobial activity, tube dilution method (MIC); type: cell-based; conditions: Salmonella enterica, TYPHI, 24 h, read-out: Minimum inhibitory concentration, S. typhi
Experimental: as §1

Staphylococcus aureus = assay: Antimicrobial activity, tube dilution method (MIC); type: cell-based; conditions: 24 h, read-out: Minimum inhibitory concentration, S. aureus, tube dilution, 37 ± 1 °C, 24 h
Experimental: as §1

Aspergillus niger = assay: Antifungal activity, tube dilution method (MIC); type: cell-based; conditions: 168 h, read-out: Minimum inhibitory concentration, A. niger, tube dilution, 25 ± 1 °C, 7 days
Experimental: as §1

Candida albicans = assay: Antifungal activity, tube dilution method (MIC); type: cell-based; conditions: 48 h, read-out: Minimum inhibitory concentration, C. albicans, tube dilution, 37 ± 1 °C, 48 h
Experimental: as §1

[1] = test system: α-amylase enzyme (diastase); assay: Antidiabetic activity: α-amylase inhibitory activity using diastase, colorimetric method; type: biochemical; conditions: for IC50 (antidiabetic activity, α-amylase): calculated via graph of % inhibition
Experimental: All the synthesized compounds were evaluated against α-amylase inhibitory activity by using diastase based on colorimetric method. 0.25 g of soluble potato starch was dissolved in 50 ml of 20 mM phosphate buffer by heating for 15 min. 1 mg diastase (amylase enzyme) was mixed in 100 ml of 20 mM phosphate buffer (pH 6.9) to obtain the enzyme solution. Different concentrations of all the synthesized derivatives were prepared by dissolving them in DMSO. […] 1 ml of enzyme solution was mixed with 1 ml of each synthesized derivatives and incubated for 10 min at 25 °C. Then 1 ml of this mixture was mixed with 1 ml of soluble potato starch solution in a tube and incubated for 10 min at 25 °C. Then tubes were closed after adding 1 ml of color reagent and placed into water bath for 15 min at 85 °C. The reaction mixture was removed from water bath after 15 min. After cooling, the reaction mixture was diluted with 9 ml of distilled water and the absorbance was taken at 540 nm in UV spectrophotometer. Blank solution was prepared by replacing the enzyme solution with buffer solution and absorbance was taken. Measurement of control was performed in identical manner by replacing the synthesized derivatives in 1 ml of DMSO.
Percentage inhibition of α-amylase enzyme was calculated by using following formula:1 %Inhibition=ABlank-ASample/ABlank×100

[2] = Antioxidant activity: free radical scavenging method by DPPH assay; conditions: for % inhibition (DPPH), 25 μg/ml / % inhibition (DPPH), 50 μg/ml / % inhibition (DPPH), 75 μg/ml / % inhibition (DPPH), 100 μg/ml: 30 min, 517 nm; for IC50 (antioxidant activity, DPPH): calculated via graph of % inhibition
Experimental: The antioxidant activity of the newly synthesized compounds were evaluated spectrophotometrically using free radical scavenging method by DPPH (2,2-diphenyl-1-picrylhydrazyl) assay. The DPPH is a stable free radical with maximal absorption at 517 nm and is reduced to a corresponding hydrazine when it reacting with hydrogen donors. […] DPPH solution (3 μg/ml) was prepared in methanol and DPPH (in 1:1) solution was used for blank reference. Four dilutions of different concentrations (25, 50, 75 and 100 μg/ml) of each synthesized compound and standard (ascorbic acid) were prepared in the methanol and 1 ml of each concentration was added to 1 ml of DPPH solution. The solution mixture was shaken vigorously and kept in dark place for 30 min at room temperature and absorbance was measured by UV at 517 nm. Percentage inhibition of Free radical DPPH was calculated as follows:1 %Inhibition=ABlank-ASample/ABlank×100 where, ABlank: absorbance of the blank reaction, ASample: absorbance of the test compound.

SMILES	MIC (Bacillus subtilis) [mM]	MIC (Escherichia coli) [mM]	MIC (Klebsiella pneumonia) [mM]	MIC (Salmonella typhi) [mM]	MIC (Staphylococcus aureus) [mM]	MIC (Aspergillus niger) [mM]	MIC (Candida albicans) [mM]	% inhibition (α-amylase), 25 μg/ml [1] [%]	% inhibition (α-amylase), 50 μg/ml [1] [%]	% inhibition (α-amylase), 75 μg/ml [1] [%]	% inhibition (α-amylase), 100 μg/ml [1] [%]	IC50 (antidiabetic activity, α-amylase) [1] [µg/mL]	% inhibition (DPPH), 25 μg/ml [2] [%]	% inhibition (DPPH), 50 μg/ml [2] [%]	% inhibition (DPPH), 75 μg/ml [2] [%]	% inhibition (DPPH), 100 μg/ml [2] [%]	IC50 (antioxidant activity, DPPH) [2] [µg/mL]	melting point [°C]
O=C1NC(=O)C(=Cc2cccc([N+](=O)[O-])c2)S1 [Compound 7, 5-(3-Nitrobenzylidene)thiazolidine-2,4-dione]	9.9 (≈ 2480 µg/mL)	4.99 (≈ 1250 µg/mL)	4.99 (≈ 1250 µg/mL)	4.99 (≈ 1250 µg/mL)	4.99 (≈ 1250 µg/mL)	9.9 (≈ 2480 µg/mL)	4.99 (≈ 1250 µg/mL)	24.72	35.71	64.87	97.15	56.09 (≈ 224 µM)	20.51	35.61	79.74	86.04	55.23 (≈ 221 µM)	110 to 113
COc1cccc(C=C2SC(=O)NC2=O)c1 [Compound 16, 5-(3-Methoxybenzylidene)thiazolidine-2,4-dione]	5.31 (≈ 1250 µg/mL)	5.31 (≈ 1250 µg/mL)	10.6 (≈ 2490 µg/mL)	5.31 (≈ 1250 µg/mL)	5.31 (≈ 1250 µg/mL)	5.31 (≈ 1250 µg/mL)	5.31 (≈ 1250 µg/mL)	27.52	43.73	57.27	85.23	40.92 (≈ 174 µM)	30.65	43.62	79.11	87.97	39.77 (≈ 169 µM)	217 to 220
O=C1NC(=O)C(=Cc2ccc(Br)cc2)S1 [Compound 9, 5-(4-Bromobenzylidene)thiazolidine-2,4-dione]	8.79 (≈ 2500 µg/mL)	8.79 (≈ 2500 µg/mL)	8.79 (≈ 2500 µg/mL)	4.3 (≈ 1220 µg/mL)	4.3 (≈ 1220 µg/mL)	4.3 (≈ 1220 µg/mL)	4.3 (≈ 1220 µg/mL)	24.73	53.78	68.34	89.37	41.67 (≈ 147 µM)	36.83	45.41	71.51	87.34	27.66 (≈ 97.3 µM)	150 to 152
CCN(CC)c1ccc(/C=C2/SC(=O)NC2=O)cc1 [Compound 8]	4.5 (≈ 1240 µg/mL)	5 (≈ 1380 µg/mL)	4.5 (≈ 1240 µg/mL)	4.5 (≈ 1240 µg/mL)	4.5 (≈ 1240 µg/mL)	4.5 (≈ 1240 µg/mL)	4.5 (≈ 1240 µg/mL)	20.79	39.54	40.89	93.17	56.89 (≈ 206 µM)	26.93	33.78	62.23	65.78	31.15 (≈ 113 µM)	158 to 160
CN(C)c1ccc(C=C2SC(=O)NC2=O)cc1 [Compound 6, 5-(4-(Dimethylamino)benzylidene)thiazolidine-2,4-dione]	5 (≈ 1240 µg/mL)	4.99 (≈ 1240 µg/mL)	10.1 (≈ 2500 µg/mL)	5 (≈ 1240 µg/mL)	5 (≈ 1240 µg/mL)	10.1 (≈ 2500 µg/mL)	20.1 (≈ 4990 µg/mL)	33.56	49.45	50.78	97.15	37.35 (≈ 150 µM)	19.54	38.93	62.65	75.82	48.13 (≈ 194 µM)	147 to 150
O=Cc1ccc(C=C2SC(=O)NC2=O)cc1 [Compound 21, 4-((2,4-Dioxothiazolidin-5-ylidene)methyl)benzaldehyde]	5.3 (≈ 1240 µg/mL)	5.3 (≈ 1240 µg/mL)	10.7 (≈ 2500 µg/mL)	5.3 (≈ 1240 µg/mL)	5.3 (≈ 1240 µg/mL)	5.3 (≈ 1240 µg/mL)	5.3 (≈ 1240 µg/mL)	21.98	47.28	70.56	74.76	38.65 (≈ 166 µM)	17.91	41.64	75.98	92.32	55.51 (≈ 238 µM)	147 to 150
